# Data: PubChem BioAssay (NCI)
#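 All cell lines were grown in 96-well plates and treated with compound for 48 hours. TGI is the concentration that stops growth completely.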
# Tests used:
# Experiment in all cases: NCI tumour cell line growth inhibition, 48 h
# [1] = tested on: UO-31 renal
# [2] = tested on: A498 renal
# [3] = tested on: SK-MEL-5 melanoma
# [4] = tested on: SNB-75 CNS
# [5] = tested on: NCI-H226 lung
# [6] = tested on: HT29 colon
# [7] = tested on: RPMI-8226 leukemia
# [8] = tested on: COLO 205 colon
# [9] = tested on: SNB-19 CNS
# [10] = tested on: UACC-62 melanoma
# [11] = tested on: LXFL 529 NSCLC
# [12] = tested on: SK-MEL-2 melanoma
# [13] = tested on: OVCAR-3 ovarian
# [14] = tested on: UACC-257 melanoma
# [15] = tested on: SNB-78 CNS
# [16] = tested on: HL-60(TB) leukemia
# [17] = tested on: CCRF-CEM leukemia
# [18] = tested on: HCT-15 colon
# [19] = tested on: SF-295 CNS
# [20] = tested on: M19-MEL melanoma
# [21] = tested on: SK-MEL-28 melanoma
# [22] = tested on: OVCAR-4 ovarian
# [23] = tested on: XF 498 CNS
# [24] = tested on: NCI-H23 lung
# [25] = tested on: SN12C renal
# [26] = tested on: RXF 393 renal
# [27] = tested on: U251 CNS
# [28] = tested on: OVCAR-8 ovarian
# [29] = tested on: OVCAR-5 ovarian
# [30] = tested on: DMS 114 small cell lung
# [31] = tested on: KM12 colon
# [32] = tested on: SF-539 CNS
# [33] = tested on: SK-OV-3 ovarian
# [34] = tested on: HOP-18 NSCLC
# [35] = tested on: IGROV1 ovarian
# [36] = tested on: DMS 273 small cell lung
# [37] = tested on: SW-620 colon
# [38] = tested on: LOX IMVI melanoma
# [39] = tested on: ACHN renal
# [40] = tested on: MOLT-4 leukemia
# [41] = tested on: TK-10 renal
# [42] = tested on: HOP-62 NSCLC
# [43] = tested on: K-562 leukemia
# [44] = tested on: HCC-2998 colon
# [45] = tested on: HOP-92 NSCLC
# [46] = tested on: SF-268 CNS
# [47] = tested on: RXF-631 renal
# [48] = tested on: DLD-1 colon
# [49] = tested on: HCT-116 colon
# [50] = tested on: KM20L2 colon
# [51] = tested on: MALME-3M melanoma
# [52] = tested on: 786-0 renal
# [53] = tested on: EKVX NSCLC
# [54] = tested on: NCI-H460 lung
# [55] = tested on: CAKI-1 renal
# [56] = tested on: A549 NSCLC
# [57] = tested on: M14 melanoma
# [58] = tested on: NCI-H522 lung
# [59] = tested on: SR leukemia
smiles,measurement,setting,value
CCOC(=O)N1C(=O)C2C3C=CC(C2C1=O)C1C2C(=O)N(C(=O)OCC)C(=O)C2C31 (stereo not given),TGI,[1],> 100 µM
same,TGI,[2],> 100 µM
same,TGI,[3],> 100 µM
same,TGI,[4],> 100 µM
same,TGI,[5],> 100 µM
same,TGI,[6],> 100 µM
same,TGI,[7],> 100 µM
same,TGI,[8],> 100 µM
same,TGI,[9],> 100 µM
same,TGI,[10],> 100 µM
same,TGI,[11],> 100 µM
same,TGI,[12],> 100 µM
same,TGI,[13],> 100 µM
same,TGI,[14],> 100 µM
same,TGI,[15],> 100 µM
same,TGI,[16],41.1 µM
same,TGI,[17],> 100 µM
same,TGI,[18],> 67.2 µM
same,TGI,[19],> 100 µM
same,TGI,[20],> 100 µM
same,TGI,[21],> 100 µM
same,TGI,[22],> 100 µM
same,TGI,[23],> 100 µM
same,TGI,[24],> 100 µM
same,TGI,[25],> 100 µM
same,TGI,[26],> 100 µM
same,TGI,[27],> 100 µM
same,TGI,[28],> 100 µM
same,TGI,[29],> 100 µM
same,TGI,[30],> 70 µM
same,TGI,[31],> 100 µM
same,TGI,[32],> 100 µM
same,TGI,[33],> 100 µM
same,TGI,[34],> 100 µM
same,TGI,[35],> 100 µM
same,TGI,[36],> 60.7 µM
same,TGI,[37],> 59.4 µM
same,TGI,[38],> 64 µM
same,TGI,[39],> 100 µM
same,TGI,[40],> 100 µM
same,TGI,[41],> 100 µM
same,TGI,[42],> 100 µM
same,TGI,[43],> 100 µM
same,TGI,[44],> 100 µM
same,TGI,[45],> 100 µM
same,TGI,[46],> 100 µM
same,TGI,[47],> 100 µM
same,TGI,[48],> 100 µM
same,TGI,[49],> 55.2 µM
same,TGI,[50],> 100 µM
same,TGI,[51],> 100 µM
same,TGI,[52],> 100 µM
same,TGI,[53],> 100 µM
same,TGI,[54],> 64.4 µM
same,TGI,[55],> 100 µM
same,TGI,[56],> 100 µM
same,TGI,[57],> 100 µM
same,TGI,[58],> 100 µM
CCC1(O)C(=O)OCc2c1cc1n(c2=O)Cc2cc3ccc(CO)cc3nc2-1 (stereo not given),TGI,[1],17 µM
same,TGI,[2],24.5 µM
same,TGI,[3],11.3 µM
same,TGI,[4],9.77 µM
same,TGI,[5],6.58 µM
same,TGI,[6],> 81.4 µM
same,TGI,[7],> 37.3 µM
same,TGI,[8],52.3 µM
same,TGI,[9],> 100 µM
same,TGI,[10],7.34 µM
same,TGI,[11],> 100 µM
same,TGI,[12],64.5 µM
same,TGI,[13],24.4 µM
same,TGI,[14],> 100 µM
same,TGI,[16],> 27 µM
same,TGI,[17],0.987 µM
same,TGI,[18],> 100 µM
same,TGI,[19],> 79.3 µM
same,TGI,[20],54 µM
same,TGI,[21],> 100 µM
same,TGI,[59],0.298 µM
same,TGI,[22],> 100 µM
same,TGI,[23],16.8 µM
same,TGI,[24],10.2 µM
same,TGI,[25],> 28.8 µM
same,TGI,[26],> 44 µM
same,TGI,[27],5.04 µM
same,TGI,[28],> 41.3 µM
same,TGI,[29],78.5 µM
same,TGI,[30],> 100 µM
same,TGI,[31],> 100 µM
same,TGI,[32],4.51 µM
same,TGI,[33],> 100 µM
same,TGI,[34],> 93.9 µM
same,TGI,[35],> 77.4 µM
same,TGI,[36],11.1 µM
same,TGI,[37],> 100 µM
same,TGI,[38],12.5 µM
same,TGI,[39],11 µM
same,TGI,[41],> 100 µM
same,TGI,[42],2.56 µM
same,TGI,[43],> 100 µM
same,TGI,[44],> 80.2 µM
same,TGI,[45],> 87.3 µM
same,TGI,[46],> 100 µM
same,TGI,[47],> 100 µM
same,TGI,[48],> 100 µM
same,TGI,[49],31.1 µM
same,TGI,[50],> 69.9 µM
same,TGI,[51],59.9 µM
same,TGI,[52],7.51 µM
same,TGI,[53],> 100 µM
same,TGI,[54],22.5 µM
same,TGI,[55],23.5 µM
same,TGI,[56],> 100 µM
same,TGI,[57],33.1 µM
same,TGI,[58],26.8 µM
